One block for each molecule: values may come before it.
Legend:
[1] = tested on: senile plaques; test: Digital autoradiography with [18F]FDDNP of AD brain specimens pretreated with nonradioactive agents; format: binding, human
Description: Brain specimens from a postmortem-diagnosed definite AD patient were treated. Briefly, formalin-treated, cryoprotected brain specimens were sectioned 70 μm thick coronally mounted on gelatine-coated glass slides, allowed to dry, and were defatted for 40 min in xylene prior to rinsing of the tissue with ethanol. Finally, lipofuscin autofluorescence in some brain specimens was quenched prior to staining using 10 mM CuCl2 in 50 mM ammonium acetate buffer, pH 5. The quenching determined the origin of lipofuscin fluorescence in brain specimens. […] Pretreated and cryosections with no competitor were incubated for 25 min at room temperature with […] of [^18[…] dissolved in 10 mL of 1% ethanol in 0.9% saline (w/v) per cryosection. Following incubation, the sections were optimally washed with water (30 sec); 60% 2-methyl-2-butanol (3 min; Sigma) agitated at 40 RPMs on a Junior Orbit Shaker (Lab-Line Instruments, Melrose Park, Ill.) for differentiation (Bancroft and Stevens, 1990); and then water (30 sec). The sections were dried on a warm hot plate with a steady stream of warm air, exposed to β^+-sensitive phosphor plates for 40 min Fuji Film Medical Systems USA, Stamford, Conn.), and scanned with a FUJI BAS 5000 Phosphorimager (Fuji) at a resolution of 25 μm, as described previously ([…] et al., 2001a). […] FIG. 2Q) in the autoradiograms. Autoradiography was carried out at least in triplicate for each competitor. Statistical analysis of the autoradiograms involved one-way ANOVA with Dunnett's post test using Prism 3.02 (GraphPad, San Diego, Calif.) to compare the differences in the ratio of gray matter-to-white matter (FIG. 2Q) radioactivity of [^18]FDDNP in autoradiograms pretreated with the nonradioactive agents and without pretreatment. Unpaired t-tests were performed to compare the difference of measured [^18[…] radioactivity per area of tissue (Bq/mm^2) in the gray and white matter of each autoradiogram. The same brain specimens used for autoradiography were observed using fluorescence microscopy. Tissues were mounted with Vectashield (Vector, Burlingame, Calif.) and observed with a Nikon Labophot fluorescence microscope (Nikon USA, Melville, N.Y.) with a FITC filter set.

[2] = tested on: amyloid plaques and tangles; test: DDNP fluorescence labeling of brain tissue sections in vitro; parameters: species or system human
Description: (§1) A 2.1 mg/mL DDNP stock solution was prepared, which was adjusted to 8 mM in 100% ethanol. A DDNP working solution was prepared by diluting the stock solution with distilled water in a ratio of 1:100-1000 (stock solution:distilled water).
β-amyloid 250 μM (1.25 mg/mL in distilled water) was aggregated at 37° C. for 48 hours. 5 μL were smeared on slides, air-dried and then rehydrated with distilled water. Alternatively, Aβ-positive brain tissue sections were rehydrated with distilled water. DDNP working solution was applied to each slide for 30 minutes at room temperature. The slides were washed three times for five minutes with distilled water. The slides were coverslipped with fluorescent protectant mounding media (Vectashield™, available Vector Labs., Burlingame, Calif.) and observed under a fluorescence microscope with a thioflavin S or FITC filter.

[3] = molecular target: T1, β-amyloid 1-40 injected into rat cortex (Homo sapiens, UniProt P05067); test: DDNP labeling of β-amyloid injected into rat brain in vivo; conditions: rats, FIGS. 2A to 2E
T1 construct: unilateral stereotaxic injection of 3 μg of aggregated β-amyloid 1-40 into rat cortex; host or cells: exogenous peptide fibrils injected into rat brain
Description: β-amyloid 250 μM (1.25 mg/mL in distilled water) was aggregated at 37° C. for 48 hours to produce fibrils confirmed by smears. Three rats were anesthetized. 3 μL of a solution of Aβ fibrils (1.25 μg/μL) were injected unilaterally into the cortex of each rat (Bregma 0, AP-4.1 mm, ML+2.0 mm, DV-3.1 mm). Then 3 μL of phosphate buffered saline (PBS) were injected into the contralateral side of each rat brain as a vehicle control. After injection, the needle remained for 5 minutes to prevent reflux, and then the cranial hole was sealed with bone wax. Eight days after β-amyloid injection into the rat brains, the rats were injected with 10 microliters of DDNP working solution (320 micromolar) prepared by diluting DDNP stock solution into 1.5% BSA (bovine serum albumin) in phosphate buffered saline, pH 7.2).
After one hour, the rats were cardiac perfused with PLP fixative (4% paraformaldehyde, 1% lysin in 0.05 M phosphate buffer, pH 7.4). Additional immersion fixation of rat brain was at 4° C. overnight with PLP fixative. The rat brains were washed with PBS, saturated in 10 and 20% sucrose, and snap frozen in chilled isopentane (−70° C.) with liquid nitrogen. The brains were cryostat sectioned at […] around the needle-track and directly coverslipped with glycerol and fluorescence protectant (Vectashield™).

[4] = tested on: neurofibrillary tangles, amyloid peptides, and diffuse amyloid; test: In vitro fluorescence labeling of Alzheimer's disease brain specimens with DDNP and [F-18]FDDNP; parameters: species or system human; conditions: all Alzheimer's disease brain specimens
[5] = Storage of DDNP stock solution; format: physicochemical; conditions: 8 mM in 100% ethanol, freezer; used at 1/100 to 1/1,000 dilutions
Description: as §1

[6] = molecular target: T2, β-amyloid (1-40) fibrils (Homo sapiens, UniProt P05067); test: In vitro competition assay with [18F]FDDNP on synthetic β-amyloid (1-40) fibrils (vacuum filtration); format: binding; conditions: for dose dependent decrease in the specific binding of [18F]FDDNP: 0.1 pM to 83 μM of nonradioactive agent; for Ki: synthetic β-amyloid (1-40) fibrils, 1 h, PBS pH 7.4, ±SD, read-out: Ki (decrease in the binding of [18F]FDDNP)
T2 construct: β-amyloid (1-40) (Biosource, Camarillo, Calif.) fibrils were prepared; purchased Biosource, Camarillo, Calif; host or cells: synthetic peptide
Description: Potential therapeutic agents were evaluated to determine their ability to bind to β-amyloid fibrils. • Amyloid (1-40) fibril formation. β-amyloid (1-40) (Biosource, Camarillo, Calif.) fibrils were prepared. 0.5 mg of β-amyloid (1-40) was dissolved in 1 mL PBS, pH 7.4 and mixed with a magnetic stir bar for 3 days at 37° C. resulting in a visibly cloudy solution. Fibrils were used immediately after their production was confirmed. The production of 13-amyloid fibrils was confirmed by imaging with a Jeol 100CX transmission electron microscope (Jeol, Peabody, Mass.). A 5 μL drop from a fibril solution was allowed to settle for 30 s on a treated copper grid before being washed away with a drop of 2% uranyl acetate solution. Finally, an additional drop of 2% uranyl acetate was added to the grid to negatively stain the fibrils. Fibrils were used immediately after their production was confirmed. Additional tests for fibril formation using Congo red (CR, Sigma) and Thioflavine T (TT, Sigma) were performed, as well. The absence of fibrils in the filtrate in the in vitro competition assays described below was determined by the same tests using CR. In vitro competition assays with [^18[…] against NSAIDs and charge amyloid dyes. Solutions of nonradioactive agents, namely (S)-naproxen (Sigma), (R)-ibuprofen (BIOMOL, Plymouth Meeting, Pa.), (S)-ibuprofen (Sigma), diclofenac (Sigma), CR and TT, were prepared fresh for each radioactive competition assay. APFF glass fiber filters (0.7 μm particle retention; Millipore, Bedford, Mass.) were used in a 1225 sampling manifold (Millipore) that was modified with stainless steel support screens (Millipore) and glass sample chambers. Vacuum filtration involved 0.865 μg/mL of in vitro fibrils of synthetic β-amyloid (1-40) and 37 MBq/mL of [^18[…] incubated for 1 h in PBS, pH 7.4 (1% ethanol) with various concentrations of the nonradioactive agents with the range of 0.1 pM to 83 μM. Each filter was then washed twice with 3 ml of PBS, pH 7.4. The radioactivity retained by the filters was measured and decay-corrected to a common reference time with a Packard Cobra II Auto-Gamma gamma counter (Packard, Meriden, Conn.). […] All competition assays were performed in triplicate. Competition results were analyzed and then Ki values calculated using the Ligand Binding Module for SigmaPlot 2001 (SPSS, Chicago, Ill.).

[7] = tested on: β-amyloid plaques and neurofibrillary tangles; test: PET with [F-18]FDDNP in patients; format: in vivo, human
Description: A patient was placed in a tomograph to obtain brain dynamic PET images. 8.0 mCi of 2-(1.1-dicyanopropen-2-yl)-6-(2-[^18F]-fluoroethyl)-methylamino)-naphthalene ([F18]FDDNP) (specific activity: 5-12 Ci/micromol; mass: ˜1 nanomol), prepared as described in Example 1(f), were injected intravenously into the arm of the patient. Dynamic acquisition data of brain images were recorded simultaneously in forty-seven brain planes for two hours.
Labeling and detection of human β-amyloid plaques and neurofibrillary tangles in vivo were conducted using the following procedures. Ten human subjects, seven Alzheimer's diseased patients (ages 71 to 80) and three control patients (ages 62 to 82) were studied. The patients were positioned supine in an EXACT HR+962 tomograph (Siemens-CTI, Knoxville, Tenn.) with the imaging plane parallel to the orbito-meatal line. Venous catheterization was performed, and then [F-18]FDDNP (5-10 mCi) in human serum albumin (25%) was administered as a bolus via the venous catheter. Sequential emission scans were obtained beginning immediately after [F-18]FDDNP administration using the following scan sequence: six 30 second scans, four 3 minute scans, five 10 minute scans, and three 20 minute scans. Rapid venous blood sampling was performed via the indwelling catheter in two subjects for input function determination and plasma metabolite analysis.
The residence time shown is in reference to that in the pons, an area known to have limited involvement in Alzheimer's disease pathology. The residence time was calculated from the clearance rates of the tracer in affected regions of interest (ROI) and in the pons as: Residence time=[1/clearance rate for affected ROI]−[1/clearance rate for pons] Separate ROIs were defined in entorhinal cortex, hippocampus, lateral temporal cortex and pons. The region with the slowest clearance rate was used as the affected ROI in the calculation of the residence time shown in FIG. 4.

[8] = tested on: amyloid plaques; conditions: cited from earlier work
[9] = AD brain specimens pretreated with 100 nM agent for 60 min
[10] = cortex of the brain of an Alzheimer's disease patient, FIG. 1B
[11] = AD brain specimens pretreated with 40 μM agent for 60 min

T2 sequence (P05067 672-711 limits assumed): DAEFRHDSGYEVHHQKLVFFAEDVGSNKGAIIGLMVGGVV
T1 sequence (P05067 672-711 limits assumed): as above

SMILES: CC(=C(C#N)C#N)c1ccc2cc(N(C)CCF)ccc2c1 [FDDNP]
specific binding of [18F]FDDNP to regions of gray matter with senile plaques [1, 9]: significantly reduced

SMILES: CC(=C(C#N)C#N)c1ccc2cc(N(C)C)ccc2c1 [DDNP, 2-(1,1-dicyanopropen-2-yl)-6-dimethylaminonaphthalene]
labeling of plaques [2, 10]: strong
labeling of tangles [2, 10]: weak
labeling of amyloid deposits in cryostat and paraffin sections of AD brain tissue ([2]; fluorescence microscopy): readily labeled amyloid deposits
passage of the blood brain barrier [3]: passes the blood brain barrier
visualization of neurofibrillary tangles, amyloid peptides, and diffuse amyloid [4]: excellent visualization
stability of stock solution [5]: can be kept in the freezer for six months and still produce acceptable results
melting point: 154.5 to 155 °C

SMILES: CC(=C(C#N)C#N)c1ccc2cc(N(C)CC[18F])ccc2c1 [[F-18]FDDNP]
estimated residence time (in reference to pons) ([7]; Alzheimer's diseased patients versus control patients, FIG. 4): different from values in control patients
regional clearance from brain ([7]; brain areas known to accumulate β-amyloid plaques and neurofibrillary tangles): slower clearance
crossing of the blood brain barrier ([7]; human, intravenous injection): crosses the blood brain barrier readily in proportion to blood flow
visualization of neurofibrillary tangles, amyloid peptides, and diffuse amyloid [4]: excellent visualization

SMILES: O=C(O)c1cc(/N=N/c2ccc(-c3ccc(/N=N/c4ccc(O)c(C(=O)O)c4)cc3)cc2)ccc1O [Chrysamine G]
ability to label amyloid plaques in Alzheimer's brain [8]: appears weak

SMILES: CC(C)Cc1ccc([C@@H](C)C(=O)O)cc1 [(R)-ibuprofen]
Ki [6]: 44.4 ± 17.4 µM
specific binding of [18F]FDDNP to regions of gray matter with senile plaques [1, 11]: significantly reduced

SMILES: CC(C)Cc1ccc([C@H](C)C(=O)O)cc1 [(S)-ibuprofen]
Ki [6]: 11.3 ± 5.2 µM
specific binding of [18F]FDDNP to regions of gray matter with senile plaques [1, 11]: significantly reduced

SMILES: CN(C)c1ccc2cc(C(/C=C\NCCO)=C(C#N)C#N)ccc2c1
melting point: 168 to 170 °C

SMILES: CN(C)/C=C/C(=C(C#N)C#N)c1ccc2cc(N(C)C)ccc2c1
melting point: 213 to 215 °C

Second part, led by results:

specific binding of [18F]FDDNP to regions of gray matter with senile plaques [1, 11]: minimal effect
SMILES: Cc1ccc2c(c1)sc(-c1ccc(N(C)C)cc1)[n+]2C.[Cl-] [TT, Thioflavine T]
dose dependent decrease in the specific binding of [18F]FDDNP [6]: did not exhibit a dose dependent decrease

specific binding of [18F]FDDNP to regions of gray matter with senile plaques [1, 11]: minimal effect
SMILES: O=C(O)Cc1ccccc1Nc1c(Cl)cccc1Cl [Diclofenac, diclofenac]
dose dependent decrease in the specific binding of [18F]FDDNP [6]: did not exhibit a dose dependent decrease

melting point: 198 to 200 °C
SMILES: CN(C)c1ccc2cc(-c3ccnc(Cl)c3C#N)ccc2c1

Ki [6]: 0.0057 ± 0.00131 µM
specific binding of [18F]FDDNP to regions of gray matter with senile plaques [1, 9]: significantly reduced
SMILES: COc1ccc2cc([C@H](C)C(=O)O)ccc2c1 [(S)-naproxen]

specific binding of [18F]FDDNP to regions of gray matter with senile plaques [1, 11]: minimal effect
SMILES: Nc1c(/N=N/c2ccc(-c3ccc(/N=N/c4cc(S(=O)(=O)O)c5ccccc5c4N)cc3)cc2)cc(S(=O)(=O)O)c2ccccc12 [CR, Congo red]
dose dependent decrease in the specific binding of [18F]FDDNP [6]: did not exhibit a dose dependent decrease

melting point: 210 to 212 °C
SMILES: CN(C)c1ccc2cc(-c3ccnc(SCCO)c3C#N)ccc2c1

melting point: 150 to 151 °C
SMILES: COc1nccc(-c2ccc3cc(N(C)C)ccc3c2)c1C#N

melting point: 256 to 257 °C
SMILES: CN(C)c1ccc2cc(-c3ccnc(N)c3C#N)ccc2c1.O

melting point: 268 to 269 °C
SMILES: CN(C)c1ccc2cc(-c3ccn4ccnc4c3C#N)ccc2c1

From US20070053831A1, “Methods for binding agents to b-amyloid plaques” (priority 2003, published 2007)
